Assays:
Type in all cases: biochemical
[1] = tested on: human α-amylase (P:S=1:1); assay: α-Amylase hydrolysis (increase in absorbance at 400 nm with coupled enzymes); settings: for Increase in absorbance for 2 minutes (corrected by the 0 IU/l of α-amylase activity): substrate solution 3.00 mM, 400 nm, 37° C., pH 7.0; for hydrolysis by α-amylase (in words): as understood from Tables 1 and 2
Description: Coupled enzyme solution was prepared by dissolving a commercially available α-glucosidase derived from yeast and a commercially available β-glucosidase derived from almond in a 50 mM phosphate buffer (pH=7.0) containing 40 mM NaCl and 2 mM MgCl2 to a concentration of 117 units/ml and 13 units/ml, respectively. As the commercially available α- and β-glucosidases, those available from Toyobo Co., Ltd. were used.
Standard α-amylase solutions were prepared by dissolving a commercially available human α-amylase (P:S=1:1) in purified water to a concentration of 0, 148, 284, 401 and 525 IU/l, respectively. As the commercially available human α-amylase, Calibzyme.AMY manufactured by International Reagents Corp. was employed. As for the activity of α-amylase, an amount of the enzyme which decomposes 1μ mol of (a commercially available) 2-chloro-4-nitrophenyl β-D-maltopentaoside at 37° C. for one minute was defined as 1 international unit (IU).
The substrate solution (a) was prepared by dissolving 2-chloro-4-nitorphenyl 6^5 -azido-6^5 -deoxy-β-D-maltopentaoside (referred to hereinafter as the substrate of the present invention) obtained in Example 3 in a 50 mM phosphate buffer (pH=7.0) containing 40 mM NaCl and 2 mM MgCl2 to a concentration of 3.00 mM.
The substrate solution (b) was prepared by dissolving 2-chloro-4-nitrophenyl 6^3 -azido-6^3 -deoxy-β-D-maltotrioside (referred to hereinafter as the reference substrate) obtained in the step (1) in a 50 mM phosphate buffer (pH=7.0) containing 40 mM NaCl and 2 mM MgCl2 to a concentration of 3.00 mM.
A coupled enzyme solution was prepared in the same manner as in the step (2) of Example 5.
α-amylase solutions were prepared in the same manner as in the step (3) of Example 5 by dissolving a commercially available human α-amylase (P:S=1:1) in purified water to a concentration of 0, 250 and 500 IU/l, respectively.
The coupled enzyme solution in an amount of 1.0 ml was added with stirring to 250 μl of the α-amylase solution, and the mixture was heated at 37° C. for one minute. Each of the substrate solution in an amount of 2.0 ml was added with stirring to the mixture, and the mixture was heated at 37° C. for 2 minutes before measuring the variation of the absorbance at 400 nm for 2 minutes.
2-chloro-4-nitrophenyl 5^5 -eno-4^5 -O-mesyl-β-D-maltopentaoside (referred to hereinafter as substrate of the present invention) obtained in Example 1 was dissolved in a 50 mM phosphate buffer (pH=7.0) containing 40 mM NaCl and 2 mM MgCl2 to a concentration of 3.00 mM.
2-chloro-4-nitrophenyl 5^3 -eno-4^3 -O-mesyl-β-D-maltotrioside(referred to hereinafter as reference substrate) obtained in the previous step (1) was dissolved in a 50 mM phosphate buffer (pH=7.0) containing 40 mM NaCl an 2 mM MgCl2 to a concentration of 3.00 mM.
α-amylase solutions were prepared in the same manner as in the step (5) of Example 7.
The variations of absorbance were measured in the same manner as in the step (6) of Example 7.

[2] = target: T1, amylase derived from human saliva (human S type α-amylase) (Homo sapiens, UniProt P0DUB6); assay: Hydrolysis rate, S type α-amylase; settings: relative to hydrolysis rate of 3 mM G5CNP defined as 10, substrate 7-9 times the Km
T1 sequence (P0DUB6 16-511): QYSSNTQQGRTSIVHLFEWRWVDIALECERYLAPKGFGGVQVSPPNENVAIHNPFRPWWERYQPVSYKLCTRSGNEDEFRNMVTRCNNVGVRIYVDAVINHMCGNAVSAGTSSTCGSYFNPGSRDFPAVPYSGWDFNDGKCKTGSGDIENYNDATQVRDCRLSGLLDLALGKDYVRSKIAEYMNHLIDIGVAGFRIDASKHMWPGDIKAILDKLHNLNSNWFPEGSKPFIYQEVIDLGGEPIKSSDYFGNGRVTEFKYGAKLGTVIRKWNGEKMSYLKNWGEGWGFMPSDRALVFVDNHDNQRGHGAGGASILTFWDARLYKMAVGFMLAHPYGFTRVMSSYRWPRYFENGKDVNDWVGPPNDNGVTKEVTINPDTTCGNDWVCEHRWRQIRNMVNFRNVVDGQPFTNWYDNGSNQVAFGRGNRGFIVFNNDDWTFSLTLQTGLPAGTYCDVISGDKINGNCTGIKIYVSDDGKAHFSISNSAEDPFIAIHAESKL
Description: The coupled enzyme solution was prepared in the same manner as in the step (2) of Example 5.
(§1) Commercially available human P type and S type α-amylase solutions having a concentration of ca. 500 IU/l were prepared in the same manner as in the step (3) of Example 5.
With 250 μl of the α-amylase solution prepared in (iii) was mixed 1.0 ml of the coupled enzyme. The mixture was heated at 37° C. for 1 minute, and 2.0 ml of the substrate solution was added with stirring to the mixture. The variation of absorbance at 400 nm was measured for 2 minutes after heating the mixture at 37° C. for 2 minutes. The hydrolysis rate of each substrate, namely the variable absorbance per unit time was expressed with the relative values to the hydrolysis rate of 3 mM G5CNP (the reference substrate) which is defined as 10.
S: amylase derived from human saliva.

[3] = target: T2, amylase derived from human pancreatic juice (human P type α-amylase) (Homo sapiens, UniProt P04746); assay: Patterns of action (hydrolyzed product by HPLC), P type α-amylase; settings: 0.5 mM substrate, 37° C., 20 minutes
T2 sequence (P04746 16-511): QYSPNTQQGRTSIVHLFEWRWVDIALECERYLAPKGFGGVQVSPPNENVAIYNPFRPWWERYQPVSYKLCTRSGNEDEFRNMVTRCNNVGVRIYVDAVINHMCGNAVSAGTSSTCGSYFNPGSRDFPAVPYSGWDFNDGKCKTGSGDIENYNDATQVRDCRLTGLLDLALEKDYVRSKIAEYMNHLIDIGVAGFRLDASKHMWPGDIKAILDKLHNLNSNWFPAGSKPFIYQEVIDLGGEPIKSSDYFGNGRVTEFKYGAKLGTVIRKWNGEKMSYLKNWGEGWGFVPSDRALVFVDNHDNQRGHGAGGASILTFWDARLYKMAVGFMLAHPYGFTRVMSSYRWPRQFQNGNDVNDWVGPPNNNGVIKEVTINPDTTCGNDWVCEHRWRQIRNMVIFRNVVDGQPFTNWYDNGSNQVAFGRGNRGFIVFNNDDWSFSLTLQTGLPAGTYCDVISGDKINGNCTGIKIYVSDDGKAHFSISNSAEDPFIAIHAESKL
Description: as §1
To 1.0 ml of the substrate solution was added 100 μl of the α-amylase solution prepared in the paragraph (iii) of the aforementioned hydrolysis rate, and the mixture, after stirred sufficiently, was subjected to reaction at 37° C. for 20 minutes. The hydrolyzed product was determined quantitatively by the high performance liquid chromatography of the reaction mixture.
P: amylase derived from human pancreatic juice, […]

Increase in absorbance for 2 minutes (corrected by the 0 IU/l of α-amylase activity) ([1]; Table 1, α-amylase activity 250 IU/l)	Increase in absorbance for 2 minutes (corrected by the 0 IU/l of α-amylase activity) ([1]; Table 1, α-amylase activity 500 IU/l)	hydrolysis by α-amylase (in words) [1]	Hydrolysis rate [2]	Patterns of action, hydrolyzed product G2CNP [3] [mol %]	Patterns of action, hydrolyzed product G3CNP [3] [mol %]	Patterns of action, hydrolyzed product G4CNP [3] [mol %]	Patterns of action, hydrolyzed product GCNP [3] [mol %]	Increase in absorbance for 2 minutes (corrected by the 0 IU/l of α-amylase activity) ([1]; Table 2, α-amylase activity 250 IU/l)	Increase in absorbance for 2 minutes (corrected by the 0 IU/l of α-amylase activity) ([1]; Table 2, α-amylase activity 500 IU/l)	SMILES
0.058	0.118	hydrolyzed satisfactorily	10	97	3	0	0			[N-]=[N+]=NC[C@H]1O[C@H](O[C@H]2[C@H](O)[C@@H](O)[C@@H](O[C@H]3[C@H](O)[C@@H](O)[C@@H](O[C@H]4[C@H](O)[C@@H](O)[C@@H](O[C@H]5[C@H](O)[C@@H](O)[C@H](Oc6ccc([N+](=O)[O-])cc6Cl)O[C@@H]5CO)O[C@@H]4CO)O[C@@H]3CO)O[C@@H]2CO)[C@H](O)[C@@H](O)[C@@H]1O [ADG5CNP, 2-chloro-4-nitrophenyl 6^5-azido-6^5-deoxy-β-D-maltopentaoside]
		hydrolyzed extremely smoothly	10	97	0	0	3	0.057	0.116	C=C1O[C@H](O[C@H]2[C@H](O)[C@@H](O)[C@@H](O[C@H]3[C@H](O)[C@@H](O)[C@@H](O[C@H]4[C@H](O)[C@@H](O)[C@@H](O[C@H]5[C@H](O)[C@@H](O)[C@H](Oc6ccc([N+](=O)[O-])cc6Cl)O[C@@H]5CO)O[C@@H]4CO)O[C@@H]3CO)O[C@@H]2CO)[C@H](O)[C@@H](O)[C@@H]1OS(C)(=O)=O [EMG5CNP, 2-chloro-4-nitrophenyl 5^5-eno-4^5 -O-mesyl-β-D-maltopentaoside]

— US5302514A, “Maltooligoside derivative, reagent for determining α-amylase activity containing the same as effective ingredient and a process for determining the α-amylase activity using same” (Kikkoman Corporation, priority 1991, dated 1994)
